Columns and labels:
[1] = test system: BER reconstituted with purified Pol β, FEN1, and LIG I; assay: Secondary gel-based BER assay reconstituted with purified core BER enzymes; assay type: biochemical; conditions: 10 μM compound, THF substrate
Protocol: The secondary screening assay was performed as described below in the “Materials and Methods” section. Lane 1 represents the substrate only. Lane 2 indicates the reaction mixture with 5 nM APE1. Lanes 3 and 4 correspond to the reaction mixture with 5 nM APE1, 10 nM pol β, 10 nM FEN1 and 20 nM LIG I in the absence and presence of dimethylsulfoxide (DMSO). Lanes 5 through 19 correspond to the reaction mixture with 5 nM APE1, 10 nM pol β, 10 nM FEN1 and 20 nM LIG I in the presence of indicated compounds. The experiments were repeated at least three times. A representative gel is illustrated.
The hit compounds were subject to secondary assays to determine their ability to reduce the BER capacity when reconstituted with purified core BER enzymes, as well as their inhibitory effects on individual BER enzymes including pol FEN1 and LIG I. The effect of hit compounds on BER capacity and BER enzymes was examined using a denaturing sequencing gel-based assay. 10 μM hit compounds were incubated with 10 nM pol β, 10 nM FEN1 and 20 nM LIG I in BER reaction buffer containing 50 mM Tris-HCl (pH 7.5), 50 mM KCl, 0.1 mM EDTA, 0.1 mg/ml bovine serum albumin, and 0.01% Nonidet P-40 in the presence of 5 mM Mg^2+ and 2 mM ATP. The compounds were initially preincubated with a BER enzyme at varying concentrations for 1 h with rotation. This was followed by the addition of 25 nM ^32P-labeled substrate containing an abasic site, which was precut with 25 or 50 nM APEI. The reaction mixture (20 μL) was incubated at 37° C. for 30 min, and the reaction was terminated by 50 mM EDTA. Substrates, products, and unrepaired BER intermediates were separated by 15% urea-denaturing sequencing gel and detected by a Pharos FX Plus PhosphorImager (Bio-Rad, Hercules, Calif.).
Among the 26 identified compounds, nine were DNA intercalators or inhibitors of human DNA topoisomerases and were excluded from further studies. Thus, […] FDA approved drugs were selected for further testing. To further confirm the inhibitory effects of the lead compounds on BER, the effects of the compounds on BER reactions reconstituted with purified BER core enzymes were initially determined.

[2] = test system: RWPE1 cells; assay: Cell Titer Glo cell viability assay, RWPE1; assay type: cell-based; conditions: 10 μM; after 24 h and 48 h; serum free medium with EGF and BPE
Protocol: FIGS. 4A-4B show cellular toxicity of lead compounds in nonmalignant androgen independent prostate-derived cell lines. (4A) PNT1A cells were plated in a 96-well plate at 1×10^4 cell/well in the presence of FBS or CSS. Cells were allowed to attach overnight and were treated with either vehicle (DMSO) or 10 μM of indicated compound. At 24 and 48 h, cellular viability was compared using the Cell Titer Glo Luminescent Cell Viability kit. (4B) RWPE1 cells were plated in a 96-well plate at 1×10^4 cells/well using the specified serum free media. Cells were allowed to attach overnight and treated with 10 μM of indicated compound.
Cell viability was determined using the Cell Titer Glo Cell Viability Assay (Promega, Madison, Wis.), as recommended by manufacturer. All experiments were performed in quadruplicate.
Next, whether the same concentration of compounds decreases the viability of the AR negative and nonmalignant prostate derived cells, PNT1A and RWPE1, was tested.

[3] = test system: RWPE1 cells; assay: RTCA impedance proliferation assay, RWPE1; assay type: cell-based; conditions: 10 μM; serum free medium
Protocol: (6A-6B) PNT1A cells were plated onto xCelligence E-plates at 5×10^4 cells per well in media supplemented with 10% FBS (6A) or CSS (6B). Cells were allowed to attach overnight and treated with vehicle (DMSO) or 10 μM of indicated compounds. Cellular impedance was monitored continuously with 30 min intervals. (6C) RWPE1 cells were plated at 5×10^4 cells per well in serum free medium supplemented with Epidermal Growth Factor (EGF) and Bovine Pituitary Extract ([…]) onto E-plates and treated with 10 μM of indicated compounds as indicated. […] Proliferation assays were done using Roche DP Real Time Cell Analyzer (RTCA), as described by the manufacturer. Background impedance was established after incubating E-plates (Acea Biosciences, San Diego, Calif.) with 50 μL media at room temperature for 30 min and placed in RTCA. Cells were then seeded in 100 μL per well. Cells attached overnight and then treated. During attachment stage and after treatment impedance was measured every 30 min. Impedance is represented by cell index and is calculated as follows: CI=(Zi−Zo)/15Ω where Zi is impedance at an individual time point, and Zo is the background impedance. Average CI was calculated from four wells per treatment at each time point and normalized to the impedance immediately after compound addition.

| Compound | BER capacity and production of the BER repair product [1] | RWPE1 cell viability [2] | RWPE1 proliferation [3] |
| --- | --- | --- | --- |
| C=C1/C(=C\C=C2/CCC[C@]3(C)[C@@H]([C@H](C)/C=C/[C@@H](O)C4CC4)CC[C@@H]23)C[C@@H](O)C[C@@H]1O [calcipotriene] | significantly reduced BER capacity | significantly decreased | slightly inhibited |
| CC(C)(O/N=C(\C(=O)N[C@@H]1C(=O)N2C(C(=O)[O-])=C(C[n+]3ccccc3)CS[C@H]12)c1csc(N)n1)C(=O)O [ceftazidime] | significantly reduced BER capacity | – | – |
| C[C@@H]1[C@H](O)[C@@H](C)/C=C/C=C/CC/C=C/C=C/C=C/C=C/C(O[C@H]2O[C@H](C)[C@@H](O)[C@H](N)[C@@H]2O)CC2O[C@](O)(CC(O)C(O)CCC(O)CC(O)CC(O)CC(=O)O[C@H]1C)CC(O)C2C(=O)O (stereo partly shown) [nystatin] | significantly reduced BER capacity | – | – |
| CC(=O)Oc1cc2c(s1)CCN(C(C(=O)C1CC1)c1ccccc1F)C2 (stereo not shown) [prasugrel] | significantly reduced BER capacity | significantly decreased | – |
